Target: T1, cathepsin K (Homo sapiens, UniProt P43235)
T1 construct: the active enzyme was obtained as the enzyme fraction by using detergent containing lysis buffer; made in house; host or cells: HEK293T (GenHunter Corporation), transient expression; detergent lysate used as enzyme fraction
T1 sequence (P43235 115-329): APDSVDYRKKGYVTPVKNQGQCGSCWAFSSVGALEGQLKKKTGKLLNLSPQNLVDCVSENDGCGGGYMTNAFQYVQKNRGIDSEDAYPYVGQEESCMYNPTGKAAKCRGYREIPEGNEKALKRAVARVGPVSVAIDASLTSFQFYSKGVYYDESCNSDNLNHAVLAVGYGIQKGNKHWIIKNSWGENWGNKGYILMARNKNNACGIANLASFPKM
Experiment: Cathepsin K inhibitory activity (fluorescent substrate Z-Leu-Arg-MCA)
Type: biochemical
Conditions: enzyme expressed in HEK293T; 15 min preincubation, 30 min reaction at room temperature, pH 5.5; read-out: Activity Intensity (cathepsin K inhibitory activity, pIC50 class) (converted)
Protocol: Cathepsin K inhibitory activities of the compounds synthesized according to the methods of the above examples were measured.
Cathepsin K used for evaluation of inhibitory activity was transiently expressed in an animal cell HEK293T (made by GenHunter Corporation) and the active enzyme was obtained as the enzyme fraction by using detergent containing lysis buffer.
The enzyme solution A was prepared at 2.1 times final concentration by diluting the enzyme fraction with assay buffer (50 mM sodium acetate, 50 mM sodium chloride, 2 mM DTT, pH 5.5). The test compound solutions B were prepared at 50 times final target concentrations by dimethylsulfoxide (DMSO). As a substrate solution C, a solution of a fluorescent substrate, benzyloxycarbonyl-L-leucyl-L-arginyl-4-methyl-coumaryl-7-amide (Z-Leu-Arg-MCA (Peptide Institute Inc.), was prepared at 10 μM by an assay buffer.
To the enzyme solution A (38.4 μL) were added the test compound solutions B (1.6 μL) and mixed individually. The mixtures were incubated at room temperature for 15 minutes. To the incubated solutions were added the substrate solution C (40 μL) and the mixtures were reacted at room temperature for 30 minutes respectively. The fluorescence intensities of the enzyme reaction solutions were measured at excitation wavelength of 355 nm and measurement wavelength of 460 nm and the enzyme activities were calculated from these fluorescence intensities caused by 7-amino-4-methylcoumarine released. The enzyme activity with using DMSO instead of the test compound solution B was taken as 100% and the inhibitory rates at each concentration of the test compound were calculated. The […] response curve was fitted to the plots. The 50% inhibitory concentration against cathepsin K was calculated from this curve.
Note that the symbols (+, ++, and +++) in this table represent the inhibitory activity values as below. Here, pIC50 is the value representing a negative logarithm of IC50, (−log10(IC50)). IC50 is a 50% inhibitory concentration.

Compound	IC50 [nM]
CC[C@@H](CNc1ccc(OCc2ccccc2)cc1)NC(=O)[C@H](CC(C)C)N[C@@H](c1ccc(OC)cc1)C(F)(F)F [Compound 97]	3.16 to 31.6
COc1ccc(NC[C@H](CC(C)C)NC(=O)[C@H](Cc2ccccc2)N[C@@H](c2ccccc2)C(F)(F)F)c(OC)c1 [Compound 63]	31.6 to 10000
CC[C@@H](CNc1ccc(OC)nc1OC)NC(=O)[C@H](CC(C)(C)F)N[C@@H](c1ccc(Br)cc1)C(F)(F)F [Compound 19]	3.16 to 31.6
CC(C)C[C@H](N[C@@H](c1ccccc1)C(F)(F)F)C(=O)N[C@@H](CCCCNC(=O)OCc1ccccc1)CNc1ccc(N2CCOCC2)cc1 [Compound 102]	≤ 3.16
CC[C@@H](CNc1ccc(-n2ccnc2)cc1)NC(=O)[C@H](CC(C)C)N[C@@H](c1ccc(OC)nc1)C(F)(F)F [Compound 113]	31.6 to 10000
CC[C@@H](CNc1ccc(OCC(=O)O)cc1OC)NC(=O)[C@H](CC(C)C)N[C@@H](c1ccc(=O)[nH]c1)C(F)(F)F [Compound 123]	3.16 to 31.6
CC(C)C[C@H](N[C@@H](c1ccccc1)C(F)(F)F)C(=O)N[C@@H](CN)CNc1ccc(N2CCOCC2)cc1 [Compound 128]	3.16 to 31.6
COc1ccc(NC[C@H](CCS(C)(=O)=O)NC(=O)[C@H](CC(C)C)N[C@@H](c2cccnc2)C(F)(F)F)c(OC)c1 [Compound 83]	3.16 to 31.6
CC[C@@H](CNc1ccc(N2CCC(C(=O)O)CC2)cc1)NC(=O)[C@H](CC(C)C)N[C@@H](c1ccc(OC)nc1)C(F)(F)F [Compound 146]	≤ 3.16
CC[C@@H](CNc1ccc(OC)cc1OC)NC(=O)[C@H](Cc1ccccc1)N[C@@H](c1cccs1)C(F)(F)F [Compound 62]	31.6 to 10000
COc1ccc(NC[C@H](CCSC)NC(=O)[C@H](CC(C)C)N[C@@H](c2ccccc2)C(F)(F)F)c(OC)c1 [Compound 66]	3.16 to 31.6
CC[C@@H](CNc1ccc(N(C)C)cc1)NC(=O)[C@H](CC(C)(C)F)N[C@@H](c1ccc(Br)cc1)C(F)(F)F [Compound 13]	≤ 3.16
CC[C@@H](CNc1ccc(OCC(=O)NCCO)cc1OC)NC(=O)[C@H](CC(C)(C)F)N[C@@H](c1ccccc1)C(F)(F)F [Compound 137]	≤ 3.16
CC(C)C[C@H](N[C@@H](c1ccccc1)C(F)(F)F)C(=O)N[C@@H](CCC(=O)OCc1ccccc1)CNc1ccc(N2CCOCC2)cc1 [Compound 68]	≤ 3.16
CC[C@@H](CNc1ccc(OCC[S+](C)[O-])cc1OC)NC(=O)[C@H](CC(C)(C)F)N[C@@H](c1ccc(Br)cc1)C(F)(F)F (stereo partly drawn) [Compound 138-1, (2S)-2-{[(1S)-1-(4-bromophenyl)-2,2,2-trifluoroethyl]amino}-N-{(1S)-1-[({2-methoxy-4-[2-(methylsulfinyl)ethoxy]phenyl}amino)methyl]propyl}-4-fluoro-4-methylpentanamide]	≤ 3.16
CC(C)C[C@H](N[C@@H](c1ccccc1)C(F)(F)F)C(=O)N[C@H](CNc1ccc(N2CCOCC2)cc1)CN(C)C [Compound 106]	≤ 3.16
CC[C@@H](CNc1ccc(N2C[C@@H](C)O[C@@H](C)C2)cc1)NC(=O)[C@H](CC(C)C)N[C@@H](c1ccc(OC)nc1)C(F)(F)F [Compound 52]	≤ 3.16
CC[C@@H](CNc1ccc(OC)cc1OC)NC(=O)[C@H](CC(C)C)N[C@@H](c1ccc(S(C)(=O)=O)cc1)C(F)(F)F [Compound 23]	≤ 3.16

Compound	IC50 [nM]
CC[C@@H](CNc1ccc(OC(C)C(=O)OC)cc1OC)NC(=O)[C@H](CC(C)(C)F)N[C@@H](c1ccccc1)C(F)(F)F (stereo partly drawn) [Compound 21, Methyl 2-{4-[((2S)-2-{(2S)-2-[((1S)-2,2,2-trifluoro-1-phenylethyl)amino]-4-fluoro-4-methylpentanoylamino}butyl)amino]-3-methoxyphenoxy}propanoate]	3.16 to 31.6
CC[C@@H](CNc1ccc(N2CCOCC2)cc1)NC(=O)[C@H](CC(C)C)N[C@@H](c1ccc(OC)nc1)C(F)(F)F [Compound 26]	≤ 3.16
CC[C@@H](CNc1ccc(OC)cc1)NC(=O)[C@H](CC(C)(C)F)N[C@@H](c1ccc(-c2ccc(S(C)(=O)=O)cc2)cc1)C(F)(F)F [Compound 1, (2S)—N-((1S)-1-{[(4-methoxyphenyl)amino]methyl}propyl)-2-[((1S)-2,2,2-trifluoro-1-{4-[4-(methylsulfonyl)phenyl]phenyl}ethyl)amino]-4-fluoro-4-methylpentanamide]	3.16 to 31.6
CC[C@@H](CNc1ccc(N2CCOCC2)cc1)NC(=O)[C@H](CC(C)(C)F)N[C@@H](c1ccc(-c2ccc(S(C)(=O)=O)cc2)cc1)C(F)(F)F [Compound 9, (2S)—N-((1S)-1-{[(4-morpholin-4-ylphenyl)amino]methyl}propyl)-2-[((1S)-2,2,2-trifluoro-1-{4-[4-(methylsulfonyl)phenyl]phenyl}ethyl)amino]-4-fluoro-4-methylpentanamide]	≤ 3.16
CC[C@@H](CNc1ccc(N2CCOCC2)cc1)NC(=O)[C@H](CC(C)C)N[C@@H](c1cccnc1)C(F)(F)F [Compound 27]	≤ 3.16
CC[C@@H](CNc1ccc(N2CCOCC2)cc1)NC(=O)[C@H](CC(C)C)N[C@@H](c1ccc(OC(F)F)cc1)C(F)(F)F [Compound 33]	≤ 3.16
CC[C@@H](CNc1ccc(-c2ccccc2)cc1)NC(=O)[C@H](CC(C)C)N[C@@H](c1ccccc1)C(F)(F)F [Compound 45]	31.6 to 10000
COc1ccc(NC[C@H](CC(C)C)NC(=O)[C@H](CC(C)C)N[C@@H](c2ccccc2)C(F)(F)F)c(OC)c1 [Compound 64]	≤ 3.16
CC[C@@H](CNc1ccc(OC)cc1OC)NC(=O)[C@H](CC(C)C)N[C@@H](c1ccc(O)cc1)C(F)(F)F [Compound 157, (2S)—N-((1S)-1-{[(2,4-dimethoxyphenyl)amino]methyl}propyl)-2-{[(1S)-2,2,2-trifluoro-1-(4-hydroxyphenyl)ethyl]amino}-4-methylpentanamide]	3.16 to 31.6
CC[C@@H](CNc1ccc(OC)cc1OC)NC(=O)[C@H](CC(C)C)N[C@@H](c1ccc(OC)nc1)C(F)(F)F [Compound 25]	3.16 to 31.6
CCOC(=O)C1CCN(c2ccc(NC[C@H](CC)NC(=O)[C@H](CC(C)C)N[C@@H](c3ccccc3)C(F)(F)F)cc2)CC1 [Compound 49]	≤ 3.16
CC[C@@H](CNc1ccc(OC)cc1OC)NC(=O)[C@@H](N[C@@H](c1ccccc1)C(F)(F)F)[C@@H](C)CC [Compound 60]	3.16 to 31.6
CC[C@@H](CNc1ccc(N(C)C)cc1)NC(=O)C1(NC(c2ccccc2)C(F)(F)F)CCCCC1 (some centres unmarked) [Compound 14]	31.6 to 10000
CC[C@@H](CNc1ccc(N2CCCCC2)cc1)NC(=O)[C@H](CC(C)(C)F)N[C@@H](c1ccc(-c2ccc(S(C)(=O)=O)cc2)cc1)C(F)(F)F [Compound 10, (2S)—N-((1S)-1-{[(4-piperidin-1-ylphenyl)amino]methyl}propyl)-2-[((1S)-2,2,2-trifluoro-1-{4-[4-(methylsulfonyl)phenyl]phenyl}ethyl)amino]-4-fluoro-4-methylpentanamide]	≤ 3.16
COc1ccc(NC[C@H](CCS(C)(=O)=O)NC(=O)[C@H](CC(C)C)N[C@@H](c2ccc(S(C)(=O)=O)cc2)C(F)(F)F)c(OC)c1 [Compound 82]	3.16 to 31.6
CC[C@@H](CNc1ccc(OCCS(C)(=O)=O)cc1OC)NC(=O)[C@H](CC(C)C)N[C@@H](c1cccnc1)C(F)(F)F [Compound 39]	3.16 to 31.6
CC[C@@H](CNc1ccc(N2CCOCC2)cc1)NC(=O)[C@H](CC(C)C)N[C@@H](c1ccc2c(c1)OCO2)C(F)(F)F [Compound 29]	≤ 3.16

— US20090291945A1, “CYSTEINE PROTEASE INHIBITORS” (Teijin Pharma Limited, priority 2008, published 2009)
